# How the values were obtained:
# Periodontitis = Periodontitis cases: sites with CPITN code 3+4 / code 4 pockets before and after the composition; format: in vivo, human
# From the text: As indicator of periodontal status pocket depth is used according to Treatment Need codes 3 and 4 in Community Periodontal Index—Treatment Needs (CPITN). This code is applied to every treated tooth or implant.
# Periodontal pockets: shallow (Code 3: 4-5 mrn) and deep (Code 4: 6 mm or more).
# (§1) Initial motivation and cleaning instruction, supragingival biofilm reduction by trimestrially repeated brushing in CHX solution 0.07 wt % for two weeks by the patient and tooth and pocket cleaning by ultrasonic scaling as well as covering exposed root dentine by adhesive fillings to hide protein coaggregational binding sites for anaerobic microbial species (A.a., P.g., T.d.) was administered. […]
# [1] = tested on: Gingivitis, edema, mucosal inflammation; experiment: Clinical observation of oral inflammation, edema and regeneration (gingivitis, dentition difficilis, healing cap, inflamed extraction socket); format: in vivo, human
# Procedure: as §1
# [2] = Case 11, 4000 I.E. systemically 2 months
# [3] = cases 10, 11, systemic application over 2 months
smiles,measurement,setting,value
"C=C1CC[C@H](O)C/C1=C/C=C1\CCC[C@]2(C)[C@@H]([C@H](C)CCCC(C)C)CC[C@@H]12 [vit D3, vitamin D3]",Code 4: severe,"Periodontitis; Case 11, 18 sites/3, 4000 I.E. systemically 2 months, before 22",22
same,edema,Periodontitis; [2],no edema
same,pocket regeneration code 3,Periodontitis; [2],+33%
same,sensitivity,Periodontitis; [2],"no sensitivity,"
same,CPITN Code 3 + 4 Nr.,"Periodontitis; Case 11, Periodontitis, Periimplantitis, 18 sites/3, 4000 I.E. systemically 2 months, before 61",38
same,"edema, inflammation and attachment loss",Periodontitis; [3],"stop of edema, inflammation and attachment loss"
same,regeneration in code 3 CPITN pockets,Periodontitis; [3],some regeneration
same,edema,"[1]; Case 10, 4000 I.E. systemically 2 months",no edema
same,pockets,"[1]; Case 10, Gingivitis, Mc Calls edema, 4000 I.E. systemically 2 months","Shallow pockets,"
